According to US20050065187A1, “Novel antimicrobial aryloxazolidinone compounds” (priority 2003, published 2005):
≈ marks a conversion by molar mass, not a printed value.

Tests used:
Assay in all cases: Antibacterial assay (Test A), microtitration MIC
[1] = tested on: MC 30603; type: cell-based, M. catarrhalis; details: Moraxella catarrhalis; Minimum Inhibitory Concentration, strain MC 30603; read-out: MC 30603 MIC
Description: (§1) Test A—Antibacterial Assays
(§2) The compounds of the present invention were tested against an assortment of Gram-negative and Gram-positive organisms using standard microtitration techniques (Cohen et. al., Antimicrob., 1985;28:766; Heifetz, et. al., Antimicrob., 1974;6:124).

[2] = tested on: HINF 30063; type: cell-based, H. influenza; details: Minimum Inhibitory Concentration, strain HINF 30063
Description: as §1, §2

[3] = tested on: SAUR 9213; type: cell-based, S. aureus; details: Staphylococcus aureus; Minimum Inhibitory Concentration, strain SAUR 9213; read-out: SAUR 9213 MIC
Description: as §1, §2

[4] = tested on: SPNE 9912; type: cell-based, S. pneumoniae; details: Streptococcus pneumoniae; Minimum Inhibitory Concentration, strain SPNE 9912; read-out: SPNE 9912 MIC
Description: as §1, §2

O=C(NC[C@H]1CN(c2ccc(C3CCC(O)[C@@H](O)C3)c(F)c2)C(=O)O1)C(F)F (stereo in doubt) [Example 10, N-{3-[4-(3,4-Dihydroxy-cyclohexyl)-3-fluoro-phenyl]-2-oxo-oxazolidin-5-ylmethyl}-2,2-difluoro-acetamide]
MIC [1]: 4 µg/mL (≈ 9.94 µM)
MIC [2]: 8 µg/mL (≈ 19.9 µM)
MIC [3]: 4 µg/mL (≈ 9.94 µM)
MIC [4]: 1 µg/mL (≈ 2.49 µM)
